Assay results taken from ChEMBL document CHEMBL1697781, “Assessment of the health effects of chemicals in humans: II. Construction of an adverse effects database for QSAR modeling” (Curr Drug Discov Technol, 2004).

Legend:
Conditions in all cases: human; call rule not given here
Hepatotoxicity [1] = assay: FDA HLAED, liver enzyme composite activity
Hepatotoxicity [2] = assay: FDA HLAED, alkaline phosphatase increase
Hepatotoxicity [3] = assay: FDA HLAED, serum glutamic oxaloacetic transaminase (SGOT) increase
Hepatotoxicity [4] = assay: FDA HLAED, serum glutamic pyruvic transaminase (SGPT) increase
Hepatotoxicity [5] = assay: FDA HLAED, lactate dehydrogenase (LDH) increase
Hepatotoxicity [6] = assay: FDA HLAED, gamma-glutamyl transferase (GGT) increase
Wherever GGT Increase - Index Value is given: reference of the scale not given here.
Wherever LDH Increase - Index Value is given: reference of the scale not given here.

Structure (SMILES) | Composite Activity - Active (Hepatotoxicity [1]) | Composite Activity - Marginal (Hepatotoxicity [1]) | Composite Activity - Score (Hepatotoxicity [1]) | Alkaline Phosphatase Increase - Activity Score (Hepatotoxicity [2]) | Alkaline Phosphatase Increase - Index Value (Hepatotoxicity [2]) | Alkaline Phosphatase Increase - Number of Reports (Hepatotoxicity [2]) | SGOT Increase - Activity Score (Hepatotoxicity [3]) | SGOT Increase - Index Value (Hepatotoxicity [3]) | SGOT Increase - Number of Reports (Hepatotoxicity [3]) | SGPT Increase - Activity Score (Hepatotoxicity [4]) | SGPT Increase - Index Value (Hepatotoxicity [4]) | SGPT Increase - Number of Reports (Hepatotoxicity [4]) | LDH Increase - Activity Score (Hepatotoxicity [5]) | LDH Increase - Index Value (Hepatotoxicity [5]) | LDH Increase - Number of Reports (Hepatotoxicity [5]) | GGT Increase - Activity Score (Hepatotoxicity [6]) | GGT Increase - Index Value (Hepatotoxicity [6]) | GGT Increase - Number of Reports (Hepatotoxicity [6]) | further results
Cc1nnc2n1-c1ccc(Cl)cc1C(c1ccccc1)=NC2 [ALPRAZOLAM] | 0 | 0 | Inactive | Inactive | 0.4 | >= 4 | Inactive | 0.7 | >= 4 | Inactive | 0.9 | >= 4 | Inactive | 0.5 | >= 4 | Inactive | 0 | < 4 | –
CCCCC[C@H](O)/C=C/[C@H]1[C@H](O)CC(=O)[C@@H]1CCCCCCC(=O)O [ALPROSTADIL] | 0 | 0 | Inactive | Inactive | 0 | < 4 | Inactive | 0 | < 4 | Inactive | 0 | < 4 | Inactive | 0 | < 4 | Inactive | 0 | < 4 | –
CN(C)c1nc(N(C)C)nc(N(C)C)n1 [ALTRETAMINE] | 0 | 0 | Inactive | Inactive | 18.3 | < 4 | Inactive | 0 | < 4 | Inactive | 0 | < 4 | Inactive | 0 | < 4 | Inactive | 0 | < 4 | –
CC(=O)OCC(=O)[C@@]12OC3(CCCC3)O[C@@H]1C[C@H]1[C@@H]3CCC4=CC(=O)C=C[C@]4(C)[C@@]3(F)[C@@H](O)C[C@@]12C [AMCINONIDE] | 0 | 0 | Inactive | Inactive | 0 | < 4 | Inactive | 0 | < 4 | Inactive | 0 | < 4 | Inactive | 0 | < 4 | Inactive | 0 | < 4 | –
NCCCNCCSP(=O)(O)O [AMIFOSTINE] | – | – | – | Inactive | 0 | < 4 | Inactive | 0 | < 4 | Inactive | 0 | < 4 | Inactive | 41.5 | < 4 | Inactive | 0 | < 4 | Composite Activity - Active (Hepatotoxicity [1]; Liver): 0; Composite Activity - Marginal (Hepatotoxicity [1]; Liver): 0; Composite Activity - Score (Hepatotoxicity [1]; Liver): Inactive
CCC1(c2ccc(N)cc2)CCC(=O)NC1=O (stereo unspecified) [AMINOGLUTETHIMIDE] | 0 | 0 | Inactive | Inactive | 0 | < 4 | Inactive | 0 | < 4 | Inactive | 0 | < 4 | Inactive | 0 | < 4 | Inactive | 0 | < 4 | –
CCCCc1oc2ccccc2c1C(=O)c1cc(I)c(OCCN(CC)CC)c(I)c1 [AMIODARONE] | – | – | – | Inactive | 0 | < 4 | Inactive | 0 | < 4 | Inactive | 0 | < 4 | Inactive | 0 | < 4 | Inactive | 0 | < 4 | Composite Activity - Active (Hepatotoxicity [1]; Liver): 0; Composite Activity - Marginal (Hepatotoxicity [1]; Liver): 0; Composite Activity - Score (Hepatotoxicity [1]; Liver): Inactive
CC(C)c1ccc2oc3nc(N)c(C(=O)O)cc3c(=O)c2c1 [AMLEXANOX] | 0 | 0 | Inactive | Inactive | 0 | < 4 | Inactive | 0 | < 4 | Inactive | 0 | < 4 | Inactive | 0 | < 4 | Inactive | 0 | < 4 | –
CCOC(=O)C1=C(COCCN)NC(C)=C(C(=O)OC)C1c1ccccc1Cl (stereo unspecified) [AMLODIPINE] | 0 | 0 | Inactive | Inactive | 1 | >= 4 | Inactive | 1.3 | >= 4 | Inactive | 1.2 | >= 4 | Inactive | 0.7 | >= 4 | Inactive | 0.8 | >= 4 | –
Clc1ccc2c(c1)C(N1CCNCC1)=Nc1ccccc1O2 [AMOXAPINE] | 0 | 0 | Inactive | Inactive | 0.7 | < 4 | Inactive | 1 | < 4 | Inactive | 0.7 | < 4 | Inactive | 0.7 | < 4 | Inactive | 0 | < 4 | –
CC1(C)S[C@@H]2[C@H](NC(=O)[C@H](N)c3ccc(O)cc3)C(=O)N2[C@H]1C(=O)O [AMOXICILLIN] | 0 | 0 | Inactive | Inactive | 0 | < 4 | Inactive | 0.1 | < 4 | Inactive | 0 | < 4 | Inactive | 0 | < 4 | Inactive | 0 | < 4 | –
CC(C)(C#N)c1cc(Cn2cncn2)cc(C(C)(C)C#N)c1 [ANASTROZOLE] | 2 | 0 | Active | Inactive | 6.4 | < 4 | Active | 16.1 | >= 4 | Active | 12.8 | >= 4 | Inactive | 6.4 | < 4 | Inactive | 0 | < 4 | –
